Assay results taken from PubChem BioAssay (NCI).
Several values for one entry are separate records, joined by “and”; a condition that tells them apart may be missing. Equal values may be shown once.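 A five-concentration, 48-hour dose response in 96-well plates underlies each endpoint, interpolated linearly between surrounding concentrations. At the GI50, growth is halved. Definition used: TGI = concentration required for complete inhibition of growth.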 Where a SMILES comes first, the peptide text is derived from it. [ ]: non-standard residue; d: D form. The star is where a group is joined. ξ: configuration not given here. NMeF = CN[C@@H](Cc1ccccc1)C(=O)O; NMeN = CN[C@@H](CC(N)=O)C(=O)O; NMeV = CN[C@H](C(=O)O)C(C)C; ξNMeV = CNC(C(=O)O)C(C)C; Boc = CC(C)(C)OC(=O)*; ξNMeA = CNC(C)C(=O)O; ξV = CC(C)C(N)C(=O)O

What was measured:
Assay in all cases: NCI anticancer screen, dose series, 48 h
OVCAR-5 ovarian = tested on: OVCAR-5 ovarian
COLO 205 colon = tested on: COLO 205 colon
U251 CNS = tested on: U251 CNS
SR leukemia = tested on: SR leukemia
KM20L2 colon = tested on: KM20L2 colon
BT-549 breast = tested on: BT-549 breast
MDA-MB-231 breast = tested on: MDA-MB-231 breast
SNB-19 CNS = tested on: SNB-19 CNS
DLD-1 colon = tested on: DLD-1 colon
786-0 renal = tested on: 786-0 renal
UACC-257 melanoma = tested on: UACC-257 melanoma
DMS 114 small cell lung = tested on: DMS 114 small cell lung
EKVX NSCLC = tested on: EKVX NSCLC
DMS 273 small cell lung = tested on: DMS 273 small cell lung
M14 melanoma = tested on: M14 melanoma
UACC-62 melanoma = tested on: UACC-62 melanoma
SF-539 CNS = tested on: SF-539 CNS
HS 578T breast = tested on: HS 578T breast
T-47D breast = tested on: T-47D breast
LOX IMVI melanoma = tested on: LOX IMVI melanoma
CAKI-1 renal = tested on: CAKI-1 renal
HL-60(TB) leukemia = tested on: HL-60(TB) leukemia
SK-MEL-28 melanoma = tested on: SK-MEL-28 melanoma
LXFL 529 NSCLC = tested on: LXFL 529 NSCLC
MCF7 breast = tested on: MCF7 breast
HOP-62 NSCLC = tested on: HOP-62 NSCLC
MALME-3M melanoma = tested on: MALME-3M melanoma
RXF 393 renal = tested on: RXF 393 renal
OVCAR-8 ovarian = tested on: OVCAR-8 ovarian
SF-268 CNS = tested on: SF-268 CNS
SK-OV-3 ovarian = tested on: SK-OV-3 ovarian
NCI-H460 lung = tested on: NCI-H460 lung
SNB-78 CNS = tested on: SNB-78 CNS
SNB-75 CNS = tested on: SNB-75 CNS
ACHN renal = tested on: ACHN renal

In the case of `COC(=O)C(C)N(C)C(=O)[C@H](CC(N)=O)N(C)C(=O)[C@@H]1CCCN1C(=O)[C@H](C(C)C)N(C)C(=O)C(C(C)C)N(C)C(=O)[C@H](Cc1ccccc1)N(C)C(=O)C(NC(=O)OC(C)(C)C)C(C)C` (stereo partly drawn) (Boc-[ξV][NMeF][ξNMeV][NMeV]P[NMeN][ξNMeA]-OMe), the TGI (OVCAR-5 ovarian) is reported as > 100 µM, the GI50 (COLO 205 colon) is reported as 17.5 µM and the TGI (COLO 205 colon) is reported as 50 µM and 35.6 µM. For the same compound, the GI50 (U251 CNS) was 16.9 µM, the TGI (U251 CNS) was 23 µM and 30.5 µM and the GI50 (SR leukemia) was 0.005 µM. The TGI (SR leukemia) was 50 µM and 21.6 µM, the TGI (KM20L2 colon) was > 100 µM and the TGI (BT-549 breast) was 32.3 µM. The TGI (MDA-MB-231 breast) was 50 µM, the GI50 (SNB-19 CNS) was 16.9 µM and the TGI (SNB-19 CNS) was 50 µM and 30.8 µM. The TGI (DLD-1 colon) was 31.8 µM, the GI50 (786-0 renal) was 29.7 µM and the TGI (786-0 renal) was 50 µM and > 100 µM. For the same compound, the GI50 (UACC-257 melanoma) was 19.4 µM, the TGI (UACC-257 melanoma) was 50 µM and 39.4 µM and the TGI (DMS 114 small cell lung) was 17.1 µM. For the same compound, the GI50 (EKVX NSCLC) was 23.7 µM, the TGI (EKVX NSCLC) was > 50 µM and 61.5 µM and the TGI (DMS 273 small cell lung) was 28.9 µM. For the same compound, the TGI (M14 melanoma) was 50 µM and 30.6 µM, the GI50 (UACC-62 melanoma) was 17.5 µM and the TGI (UACC-62 melanoma) was 20.3 µM and 36.8 µM. For the same compound, the GI50 (SF-539 CNS) was 18.1 µM, the TGI (SF-539 CNS) was 50 µM and 32.4 µM and the TGI (HS 578T breast) was 23.6 µM. The TGI (T-47D breast) was 50 µM, the GI50 (LOX IMVI melanoma) was 3.1 µM and the TGI (LOX IMVI melanoma) was 20.7 µM and 19.2 µM. The GI50 (CAKI-1 renal) was 26.9 µM, the TGI (CAKI-1 renal) was > 50 µM and 55.3 µM and the GI50 (HL-60(TB) leukemia) was 4.54 µM. For the same compound, the TGI (HL-60(TB) leukemia) was 44.7 µM and 17.4 µM, the TGI (SK-MEL-28 melanoma) was 50 µM and 30.5 µM and the TGI (LXFL 529 NSCLC) was 10.3 µM. The TGI (MCF7 breast) was 50 µM, the GI50 (HOP-62 NSCLC) was 19.1 µM and the TGI (HOP-62 NSCLC) was 31.5 µM and 38.8 µM. It also gave a TGI (MALME-3M melanoma) of 32.5 µM, a TGI (RXF 393 renal) of 29.8 µM and a TGI (OVCAR-8 ovarian) of 31.3 µM. For the same compound, the GI50 (SF-268 CNS) was 15.6 µM, the TGI (SF-268 CNS) was 50 µM and 29 µM and the GI50 (SK-OV-3 ovarian) was 29.4 µM. The TGI (SK-OV-3 ovarian) was 50 µM and > 100 µM, the GI50 (NCI-H460 lung) was 17.4 µM and the TGI (NCI-H460 lung) was 50 µM and 39 µM. For the same compound, the TGI (SNB-78 CNS) was 40.4 µM, the GI50 (SNB-75 CNS) was 17.2 µM and the TGI (SNB-75 CNS) was 21.1 µM and 31.9 µM. The GI50 (ACHN renal) was > 100 µM and the TGI (ACHN renal) was > 100 µM.
